In brackets after ≈: the same amount, converted by molar mass. Read-outs that look alike come from different tables or passages of the source.
Assays:
[1] = tested on: NaD1-resistant strains of S. cerevisiae compared to wild type BY4741; experiment: Stress spot assay on YPD agar; type: cell-based, Saccharomyces cerevisiae; conditions: for growth of NaD1-resistant strains relative to wild-type: result in words; for concentration that inhibited NaD1-resistant strains but not the wild type: YPD agar spot assay, Figure 6; for concentration at which sensitivity of the NaD1-resistant strains was observed: YPD agar, fivefold dilution spots, overnight 30°C, Supplementary Figures 3 and 4
Experimental: YPD agar medium (25 mL) was amended to a final concentration of hydrogen peroxide (0.625 mM, 1.25 mM, 2.5 mM, 5 mM), CFW (1 μg/mL, 2.5 μg/mL, 5 μg/mL, 10 μg/mL), NaCl (100 mM, 200 mM, 300 mM), or SDS (12.5 μg/mL, 25 μg/mL, 50 μg/mL, 100 μg/mL) just before each plate was poured. Yeast cultures were grown overnight in 5 mL of YPD before dilution to an OD 600 nm of 0.1. A fivefold dilution series of each culture was spotted onto the plate (4 μL per spot) and incubated overnight at 30°C before being photographed.

[2] = tested on: S. cerevisiae BY4741 wild-type; experiment: Antifungal growth assay, wild-type strain; type: cell-based; conditions: Saccharomyces cerevisiae
Experimental: (§1) Antifungal assays were performed as described in [Hayes et al. (2013)]. Briefly, cultures were grown overnight (30°C, 250 rpm) in 5 mL YPD and diluted to an OD600 of 0.01 in ½ PDB. Antifungal molecules were prepared at 10x the assay concentration, and 10 μL was mixed with 90 μL of diluted yeast culture before incubation for 24 h at 30°C. The final OD600 was measured using a SpectraMAX M5e plate reader (Molecular Devices).

S. cerevisiae BY4741 = experiment: Serial sub-culturing in the presence of antifungal to develop resistance; type: cell-based, Saccharomyces cerevisiae; conditions: caspofungin-resistant lines
Experimental: (§2) S. cerevisiae BY4741 was grown overnight at 30°C with agitation in 5 mL of YPD. The overnight culture was then diluted to an OD 600 nm of 0.01 in 50% strength PDB medium (½ PDB) before addition of antifungal molecules. Cultures were initially grown with the antifungal molecules at 0.5x the minimum inhibitory concentration (MIC) or 1x MIC alongside a negative control lacking antifungals. Three independent lines for the test and controls were grown at the same time. The cultures were incubated overnight at 30°C with agitation. […] Sub-culturing was stopped once growth occurred at 32 times the original MIC.

[3] = tested on: NaD1-resistant strains of S. cerevisiae; experiment: Antifungal growth assay, NaD1-resistant strains (stated together); type: cell-based, Saccharomyces cerevisiae; conditions: Figure 2B; result in words
Experimental: as §2
(§3) Cultures that were more tolerant to the antifungal molecule were streaked out for single colonies on non-selective YPD agar. Three colonies were picked from each line, and their resistance was re-tested. The colony with the highest resistance to the antifungal was retained for further experimentation. The MIC of pure strains isolated from each culture was broadly equivalent (Supplementary Figure 1).
(§4) Antifungal assays were performed as described in [Hayes et al. (2013)]. Briefly, cultures were grown overnight (30°C, 250 rpm) in 5 mL YPD and diluted to an OD600 of 0.01 in ½ PDB. […] The final OD600 was measured using a SpectraMAX M5e plate reader (Molecular Devices).

[4] = tested on: S. cerevisiae NaD1-resistant strain C; experiment: Antifungal growth assay, NaD1-R C; type: cell-based; conditions: Saccharomyces cerevisiae, Table 1, ½ PDB, 24 h at 30°C, OD600, read-out: Caspofungin MIC
Experimental: as §2, §3, §4

[5] = tested on: S. cerevisiae Caspofungin-R C; experiment: Antifungal growth assay, Caspofungin-R C; type: cell-based; conditions: Saccharomyces cerevisiae, Table 1, ½ PDB, 24 h at 30°C, OD600
Experimental: as §2, §3, §4

[6] = tested on: S. cerevisiae Caspofungin-R B; experiment: Antifungal growth assay, Caspofungin-R B; type: cell-based; conditions: Saccharomyces cerevisiae, Table 1, ½ PDB, 24 h at 30°C, OD600
Experimental: as §2, §3, §4

[7] = tested on: no-treatment control lines of S. cerevisiae; experiment: Antifungal growth assay, no-treatment control lines (stated together); type: cell-based; conditions: Saccharomyces cerevisiae, read-out: MIC against no treatment control
Experimental: as §2, §1

[8] = tested on: S. cerevisiae NaD1-resistant strain A; experiment: Antifungal growth assay, NaD1-R A; type: cell-based; conditions: Saccharomyces cerevisiae, Table 1, ½ PDB, 24 h at 30°C, OD600, read-out: Caspofungin MIC
Experimental: as §2, §3, §4

[9] = tested on: caspofungin-resistant isolates of S. cerevisiae; experiment: Antifungal growth assay, caspofungin-resistant isolates (stated together); type: cell-based, Saccharomyces cerevisiae
Experimental: as §2, §3, §4

[10] = tested on: S. cerevisiae NaD1-resistant strain B; experiment: Antifungal growth assay, NaD1-R B; type: cell-based; conditions: Saccharomyces cerevisiae, Table 1, ½ PDB, 24 h at 30°C, OD600, read-out: Caspofungin MIC
Experimental: as §2, §3, §4

[11] = tested on: S. cerevisiae Caspofungin-R A; experiment: Antifungal growth assay, Caspofungin-R A; type: cell-based; conditions: Saccharomyces cerevisiae, Table 1, ½ PDB, 24 h at 30°C, OD600
Experimental: as §2, §3, §4

[Cl-].[Na+] [NaCl]
growth of NaD1-resistant strains relative to wild-type ([1]; 200 mM NaCl in YPD agar): grew better than wild-type

CC[C@H](C)C[C@H](C)CCCCCCCCC(=O)N[C@H]1C[C@@H](O)[C@@H](NCCN)NC(=O)[C@@H]2[C@@H](O)CCN2C(=O)[C@H]([C@H](O)CCN)NC(=O)[C@H]([C@H](O)[C@@H](O)c2ccc(O)cc2)NC(=O)[C@@H]2C[C@@H](O)CN2C(=O)[C@H]([C@@H](C)O)NC1=O [caspofungin]
MIC ([2]; Table 1, Wild-type, ½ PDB, 24 h at 30°C, OD600, read-out: Caspofungin MIC): 0.02 µM (≈ 0.0219 µg/mL) | MIC ([2]; initial MIC at the start of sub-culturing, read-out: initial MIC): 0.01 µM (≈ 0.0109 µg/mL) | rounds of sub-culture to achieve growth at concentrations 32-fold higher than the initial MIC (S. cerevisiae BY4741): 15 rounds | sensitivity of NaD1-resistant strains compared with wild type [3]: as sensitive to caspofungin as the wild-type strain | MIC [4]: 0.025 µM (≈ 0.0273 µg/mL) | MIC [5]: 0.5 µM (≈ 0.547 µg/mL) | MIC [6]: 0.5 µM (≈ 0.547 µg/mL) | MIC [7]: 0.02 µM (≈ 0.0219 µg/mL) | MIC [8]: 0.025 µM (≈ 0.0273 µg/mL) | MIC ([9]; Saccharomyces cerevisiae, read-out: MIC against caspofungin-resistant isolates): 0.5 µM (≈ 0.547 µg/mL) | fold more resistant than no treatment control / wild type (MIC ratio) ([9]; caspofungin-resistant isolates versus no treatment control / wild type): 25 fold | MIC [10]: 0.025 µM (≈ 0.0273 µg/mL) | MIC [11]: 0.5 µM (≈ 0.547 µg/mL)

OO [hydrogen peroxide]
growth of NaD1-resistant strains relative to wild-type ([1]; range of hydrogen peroxide concentrations in YPD agar): grew the same as the wild-type strain

CCCCCCCCCCCCOS(=O)(=O)[O-].[Na+] [SDS]
concentration that inhibited NaD1-resistant strains but not the wild type [1]: 100 µg/mL | concentration at which sensitivity of the NaD1-resistant strains was observed [1]: 12.5 µg/mL

O=S(=O)(O)c1cc(Nc2nc(Nc3ccccc3)nc(N(CCO)CCO)n2)ccc1/C=C/c1ccc(Nc2nc(Nc3ccccc3)nc(N(CCO)CCO)n2)cc1S(=O)(=O)O [CFW, calcofluor white]
concentration that inhibited NaD1-resistant strains but not the wild type [1]: 10 µg/mL | concentration at which sensitivity of the NaD1-resistant strains was observed [1]: 1 µg/mL

Reference: paper PMC6066574, “Resistance to the Plant Defensin NaD1 Features Modifications to the Cell Wall and Osmo-Regulation Pathways of Yeast” (Frontiers in Microbiology, 2018)
